Reference: paper PMC6832265 (Molecules, 2019)
“Also recorded” adds a separate entry of the source. Like-named read-outs stand apart in the source and are kept apart here.

Legend:
mice = conditions: ref Registry of Toxic Effects of Chemical Substances, cited from earlier work
Lewis lung carcinoma = system: Lewis lung carcinoma; design: method as in PMID 30903487; conditions: Lewis lung carcinoma models; cited from earlier work
Tdp1 [1] = target: T1, Tdp1 (Homo sapiens, UniProt Q9NUW8); assay: Real-time detection of Tdp1 activity (5'-FAM/3'-BHQ1 oligonucleotide biosensor); assay type: biochemical; conditions: 1.5 nM Tdp1, 50 nM oligonucleotide substrate, 26 °C
T1 construct: made in house; host or cells: Escherichia coli
In short: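 Recombinant human Tdp1 (E. coli-expressed, 1.5 nM) with 50 nM 16-mer ssDNA 5'-FAM/3'-BHQ1 biosensor in 50 mM Tris-HCl, 50 mM NaCl, 7 mM β-mercaptoethanol, 26 °C; fluorescence (Ex485/Em520) read each minute. Inhibition from linear-phase slope (0–7 min) vs 1.5% DMSO control; IC50 from six-point curves, ≥2 independent experiments.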

[2] = target: T2, recombinant Tdp1 (residues 149–608) (Homo sapiens, UniProt Q9NUW8); assay: Intrinsic tryptophan fluorescence quenching binding assay; conditions: 10 µM Tdp1, 20 mM Tris, 250 mM NaCl, pH 8; triplicate
T2 construct: recombinant Tdp1 (residues 149–608) was obtained from GenScript; host or cells: E. coli BL21(DE3)
Protocol: The binding of the synthesized compounds to recombinant Tdp1 was also tested (Table 1 and Table 2) by using an intrinsic tryptophan fluorescence quenching assay. […] As our compounds are aromatic in nature, there is a possibility that they may bind to both the active site as well as non-specifically to the DNA/peptide binding pockets. Nonetheless, our results confirmed that the compounds were indeed binders of Tdp1, thus complementing our inhibition data.
pET-28a(+) plasmid encoding recombinant Tdp1 (residues 149–608) was obtained from GenScript. E. coli BL21(DE3) was used for recombinant protein production. Protein production was induced with 1 mM IPTG at 28 °C with overnight incubation. Tdp1 was purified using affinity and size exclusion chromatography. Fluorescence was measured using a PerkinElmer EnSpire Multimode Reader. Tdp1 concentration was 10 μM with varying compound concentrations. The buffer was 20 mM Tris and 250 mM NaCl (pH 8). The excitation wavelength was 280 nm and intrinsic fluorescence was measured at 350 nm. Control experiments with Tdp1 or the compound on its own were also conducted. Background fluorescence arising from the compounds was subtracted from the final spectrum. The total volume per well was 30 μL. The dissociation constant (KD) was calculated using Equation (1), which takes non-specific binding into account. y = Bmaxx/(KD + x) + Nsx(1) where y denotes the changes in fluorescence intensity; x denotes the concentration of the compounds; Bmax denotes the maximum changes in fluorescence intensity; and Ns is a scaling factor for non-specific binding. Experiments were conducted in triplicate.

[3] = MTT test, intrinsic cytotoxicity; assay type: cell-based; conditions: human, HeLa cells (cervical carcinoma), compound alone
From the text: First, we studied the intrinsic cytotoxicity of the compounds against HeLa cells (cervical carcinoma). For experiments on cells, we selected compounds which combined high inhibitory activity with good chemical accessibility. The MTT test data are shown in Figure 4 for compounds from both the heteroarylidene-hydrazinotiazole and arylidene-hydrazinotiazole subclasses. […] Heteroarylidene-hydrazinothiazole derivatives (+)- and (−)-16f, containing a bromothiophene residue, also have low toxicity (CC50 about 80 µM), while the 16d pair, containing a nitro group that is a known toxicophore, suppressed cell growth at a concentration of 20 µM.
Analysis of the intrinsic toxicity of the compounds was examined against human cell line HeLa (cervical cancer) using a standard MTT test by colorimetric measurement of the amount of formazan converted from 3-(4,5-dimethylthiazol-2-yl)-2,5-diphenyl-2H-tetrazolium bromide in cells exposed to the compounds. […] After formation of a 30–50% monolayer, tested compounds were added to the medium (the volume of added reagents was 1/100 of the total volume of the culture medium, the amount of DMSO was 1% of the final volume), and the cell culture was monitored for three days. […]

HeLa cells = assay: MTT test, combination of Tdp1 inhibitors with topotecan; assay type: cell-based, human
Protocol: In order to derive the optimal concentration for the inhibitors to provide the maximum sensitizing effect, but remaining non-toxic, the concentrations with topotecan at 2 µM, were varied.
Since there is no information on the rate and efficiency of the penetration of compounds into the cells, we studied the effect of the order of administration of (+)-17b and topotecan on their synergistic effect.
Analysis of the intrinsic toxicity of the compounds was examined against human cell line HeLa (cervical cancer) using a standard MTT test [51] by colorimetric measurement of the amount of formazan converted from 3-(4,5-dimethylthiazol-2-yl)-2,5-diphenyl-2H-tetrazolium bromide in cells exposed to the compounds. The cells were grown in Iscove’s Modified Dulbecco’s Medium (IMDM), with 40 μg/mL gentamicin, 50 IU/mL penicillin, 50 μg/mL streptomycin (MP Biomedicals), and in the presence of 10% fetal bovine serum (Biolot) in a 5% CO2 atmosphere. After formation of a 30–50% monolayer, tested compounds were added to the medium (the volume of added reagents was 1/100 of the total volume of the culture medium, the amount of DMSO was 1% of the final volume), and the cell culture was monitored for three days. Control cells were grown in the presence of 1% DMSO. The measurements were carried out in three parallel experiments.

Tdp1 [4] = target: T1, Tdp1; conditions: cited from earlier work
Top1 = system: Top1; design: method as in PMID 28418653; conditions: cited from earlier work
Tdp2 = system: Tdp2; design: method as in PMID 28418653; conditions: cited from earlier work

T1 sequence (Q9NUW8 whole entry): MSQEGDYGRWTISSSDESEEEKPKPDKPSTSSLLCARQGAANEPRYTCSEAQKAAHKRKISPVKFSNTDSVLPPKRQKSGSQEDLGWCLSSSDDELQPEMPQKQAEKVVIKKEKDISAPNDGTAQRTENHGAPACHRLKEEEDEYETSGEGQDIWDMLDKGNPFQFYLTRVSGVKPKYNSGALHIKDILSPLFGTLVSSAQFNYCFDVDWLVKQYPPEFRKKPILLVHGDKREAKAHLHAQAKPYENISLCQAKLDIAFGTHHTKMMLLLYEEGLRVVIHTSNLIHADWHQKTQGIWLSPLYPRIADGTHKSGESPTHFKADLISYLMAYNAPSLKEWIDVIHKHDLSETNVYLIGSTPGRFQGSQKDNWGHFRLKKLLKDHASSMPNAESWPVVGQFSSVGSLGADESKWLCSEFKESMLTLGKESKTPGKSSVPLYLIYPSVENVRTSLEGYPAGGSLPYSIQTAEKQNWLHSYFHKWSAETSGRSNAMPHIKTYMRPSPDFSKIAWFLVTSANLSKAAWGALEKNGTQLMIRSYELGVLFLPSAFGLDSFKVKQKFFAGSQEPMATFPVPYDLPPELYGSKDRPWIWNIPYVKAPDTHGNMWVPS
T2 sequence (Q9NUW8 149-608): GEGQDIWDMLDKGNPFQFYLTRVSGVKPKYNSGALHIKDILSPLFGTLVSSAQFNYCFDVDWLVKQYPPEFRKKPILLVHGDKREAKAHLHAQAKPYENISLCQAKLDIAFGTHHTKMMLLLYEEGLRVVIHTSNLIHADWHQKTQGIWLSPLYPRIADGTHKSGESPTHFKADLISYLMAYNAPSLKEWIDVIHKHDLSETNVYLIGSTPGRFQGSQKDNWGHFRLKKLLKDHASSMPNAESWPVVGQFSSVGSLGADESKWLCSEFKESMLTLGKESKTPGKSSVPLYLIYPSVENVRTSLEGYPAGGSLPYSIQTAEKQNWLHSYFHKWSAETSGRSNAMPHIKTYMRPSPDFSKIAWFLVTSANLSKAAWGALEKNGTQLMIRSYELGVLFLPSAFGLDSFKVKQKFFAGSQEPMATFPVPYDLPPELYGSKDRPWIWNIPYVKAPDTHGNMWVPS

Compound | IC50 (Tdp1 [1]) [µM] | Kd [2] [µM] | further results
2,6-diacetyl-7,9-dihydroxy-8,9b-dimethyl-1,3(2H,9bH)-dibenzo-furandione [Usnic acid] | – | – | LD50 (mice; mice): 838 mg/kg; toxicity class (mice): class III toxicity (moderately toxic)
CC(=O)c1c(O)c(C)c(O)c2c1OC1=CC(=O)/C(=C(/C)NCCCc3cc(C(C)(C)C)c(O)c(C(C)(C)C)c3)C(=O)[C@@]12C [9b] | – | – | metastasis growth (Lewis lung carcinoma): reduces metastasis growth
CC(=O)C1=C(O)C=C2Oc3c(-c4csc(N/N=C/c5ccc(Br)s5)n4)c(O)c(C)c(O)c3[C@@]2(C)C1=O [(+)-16f, (2R)-4-Acetyl-5,11,13-trihydroxy-2,12-dimethyl-10-{2-[(E)-2-[(5-bromothiophen-2-yl)methylidene]hydrazin-1-yl]-1,3-thiazol-4-yl}-8-oxatricyclo[7.4.0.0^2,7]trideca-1(9),4,6,10,12-pentaen-3-one] | 0.088 ± 0.003 | 95 ± 11 | CC50 at 3 days [3]: ~80 µM
COc1ccc(/C=N/Nc2nc(-c3c(O)c(C)c(O)c4c3OC3=CC(O)=C(C(C)=O)C(=O)[C@@]34C)cs2)cc1COc1cccc(F)c1 [(+)-17b, (2R)-4-Acetyl-10-{2-[(E)-2-({3-[(3-fluorophenoxy)methyl]-4-methoxyphenyl}methylidene)hydrazin-1-yl]-1,3-thiazol-4-yl}-5,11,13-trihydroxy-2,12-dimethyl-8-oxatricyclo[7.4.0.0^2,7]trideca-1(9),4,6,10,12-pentaen-3-one] | 0.026 ± 0.004 | 131 ± 15 | effect of the order of administration on the synergistic effect with topotecan (HeLa cells; 30 minutes between additions): the simultaneous administration of drugs reduced the synergistic effect; also recorded: led to worse results when compared with simultaneous administration
CC(=O)C1=C(O)C=C2Oc3c(-c4csc(N/N=C/c5ccc(Br)s5)n4)c(O)c(C)c(O)c3[C@]2(C)C1=O [(−)-16f, (2S)-4-Acetyl-5,11,13-trihydroxy-2,12-dimethyl-10-{2-[(E)-2-[(5-bromothiophen-2-yl)methylidene]hydrazin-1-yl]-1,3-thiazol-4-yl}-8-oxatricyclo[7.4.0.0^2,7]trideca-1(9),4,6,10,12-pentaen-3-one] | 0.043 ± 0.001 | 148 ± 9 | CC50 at 3 days [3]: ~80 µM
COc1ccc(/C=N/Nc2nc(-c3c(O)c(C)c(O)c4c3OC3=CC(O)=C(C(C)=O)C(=O)[C@]34C)cs2)cc1Cn1nc(C)c([N+](=O)[O-])c1C [(−)-17k, (2S)-4-Acetyl-10-{2-[(E)-2-({3-[(3,5-dimethyl-4-nitro-1H-pyrazol-1-yl)methyl]-4-methoxyphenyl}methylidene)hydrazin-1-yl]-1,3-thiazol-4-yl}-5,11,13-trihydroxy-2,12-dimethyl-8-oxatricyclo[7.4.0.0^2,7]trideca-1(9),4,6,10,12-pentaen-3-one] | 0.046 ± 0.005 | 142 ± 11 | –
CCCCN(CCCC)CC(=O)Nc1cc(C(F)(F)F)cc2c1SSSSS2 [compound 2] | – | – | IC50 (Tdp1 [4]; read-out: IC50): 0.2 µM
COc1cnc2c(c1)C(=O)c1c-2n(CCCNC2=NCCS2)c(=O)c2cc([N+](=O)[O-])ccc12 [compound 4] | – | – | IC50 (Top1): < 1 µM; IC50 (Tdp2): 12 to 37 µM; IC50 (Tdp1 [4]; read-out: IC50 (Tdp1)): 1 to 12 µM
CC1(C)[C@H]2CC=C(COc3ccc4c5c(c(=O)oc4c3)CCC5)[C@@H]1C2 [compound 7] | – | – | IC50 (Tdp1 [4]; read-out: IC50): 0.67 µM
CC[C@@]1(O)C(=O)OCc2c1cc1n(c2=O)Cc2cc3c(CN(C)C)c(O)ccc3nc2-1 [topotecan, reference compound] | – | – | CC50 (HeLa cells; Homo sapiens, read-out: CC50 of topotecan alone): 6 µM
(2R)-4-Acetyl-5,11,13-trihydroxy-2,12-dimethyl-10-{2-[(E)-2-[(thiophen-3-yl)methylidene] hydrazin-1-yl]-1,3-thiazol-4-yl}-8-oxatricyclo[7.4.0.0^2,7]trideca-1(9),4,6,10,12-pentaen-3-one amine [(+)-16j] | 0.107 ± 0.031 | 65 ± 7 | –
(2R)-4-Acetyl-10-{2-[(E)-2-({3-[(3,4-difluorophenoxy)methyl]-4-methoxyphenyl}methylidene)hydrazin-1-yl]-1,3-thiazol-4-yl}-5,11,13-trihydroxy-2,12-dimethyl-8-oxatricyclo[7.4.0.0^2,7]trideca-1(9),4,6,10,12-pentaen-3-one [(+)-17e] | 0.064 ± 0.006 | 213 ± 4 | –
(2S)-4-Acetyl-5,11,13-trihydroxy-2,12-dimethyl-10-{2-[(E)-2-[(1H-3-methyl-indole-3-yl) methylidene]hydrazin-1-yl]-1,3-thiazol-4-yl}-8-oxatricyclo[7.4.0.0^2,7]trideca-1(9),4,6,10,12-pentaen-3-one [(−)-16q] | 0.081 ± 0.02 | 58 ± 4 | –
(2S)-4-Acetyl-5,11,13-trihydroxy-2,12-dimethyl-10-{2-[(E)-2-[(thiophen-3-yl)methylidene] hydrazin-1-yl]-1,3-thiazol-4-yl}-8-oxatricyclo[7.4.0.0^2,7]trideca-1(9),4,6,10,12-pentaen-3-one amine [(−)-16j] | 0.04 ± 0.003 | 771 ± 46 | –
(2S)-4-Acetyl-10-{2-[(E)-2-({3-[(3,4-difluorophenoxy)methyl]-4-methoxyphenyl}methylidene)hydrazin-1-yl]-1,3-thiazol-4-yl}-5,11,13-trihydroxy-2,12-dimethyl-8-oxatricyclo[7.4.0.0^2,7]trideca-1(9),4,6,10,12-pentaen-3-one [(−)-17e] | 0.03 ± 0.011 | 130 ± 8 | –
